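Interpolation was linear, between the two tested concentrations surrounding the appropriate level; five concentrations were tested over 48 hours in 96-well plates. GI50 marks 50% less growth. TGI is the concentration that stops growth completely.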
How the values were obtained:
Assay in all cases: NCI tumour cell line growth inhibition, 48 h
[1] = test system: OVCAR-3 ovarian
[2] = test system: SW-620 colon
[3] = test system: NCI-H23 lung
[4] = test system: UACC-257 melanoma
[5] = test system: SR leukemia
[6] = test system: SF-295 CNS
[7] = test system: MCF7 breast
[8] = test system: SF-539 CNS
[9] = test system: EKVX NSCLC
[10] = test system: IGROV1 ovarian
[11] = test system: HOP-62 NSCLC
[12] = test system: ACHN renal
[13] = test system: T-47D breast
[14] = test system: NCI-H226 lung
[15] = test system: HOP-92 NSCLC
[16] = test system: MOLT-4 leukemia
[17] = test system: MALME-3M melanoma
[18] = test system: M14 melanoma
[19] = test system: 786-0 renal
[20] = test system: K-562 leukemia
[21] = test system: U251 CNS
[22] = test system: RXF 393 renal
[23] = test system: A498 renal
[24] = test system: KM12 colon
[25] = test system: MDA-MB-435
[26] = test system: SK-MEL-5 melanoma
[27] = test system: RPMI-8226 leukemia
[28] = test system: SNB-19 CNS
[29] = test system: DU-145 prostate
[30] = test system: COLO 205 colon
[31] = test system: OVCAR-5 ovarian
[32] = test system: A549 NSCLC
[33] = test system: LOX IMVI melanoma
[34] = test system: SK-MEL-2 melanoma
[35] = test system: HL-60(TB) leukemia
[36] = test system: HCC-2998 colon
[37] = test system: SF-268 CNS
[38] = test system: SNB-75 CNS
[39] = test system: HCT-15 colon
[40] = test system: NCI/ADR-RES ovarian
[41] = test system: SK-OV-3 ovarian
[42] = test system: BT-549 breast
[43] = test system: SK-MEL-28 melanoma
[44] = test system: CCRF-CEM leukemia
[45] = test system: OVCAR-8 ovarian
[46] = test system: TK-10 renal
[47] = test system: HT29 colon
[48] = test system: UACC-62 melanoma
[49] = test system: CAKI-1 renal
[50] = test system: MDA-MB-231 breast
[51] = test system: OVCAR-4 ovarian
[52] = test system: NCI-H460 lung
[53] = test system: HS 578T breast
[54] = test system: SN12C renal
[55] = test system: PC-3 prostate
[56] = test system: UO-31 renal
[57] = test system: NCI-H522 lung
[58] = test system: HCT-116 colon

`CNCCn1c(=O)c2cc(OC)c(OC)cc2c2ccc3cc4c(cc3c21)OCO4` was tested, and the GI50 [1] was 162 nM, the TGI [1] was 1250 nM and the GI50 [2] was 57.2 nM. The TGI [2] was 3090 nM, the GI50 [3] was 112 nM and the TGI [3] was 556 nM. The GI50 [4] was 160 nM, the TGI [4] was 854 nM and the GI50 [5] was 17.3 nM. It also gave a TGI [5] of 972 nM, a GI50 [6] of 34.6 nM and a TGI [6] of 359 nM. It also gave a GI50 [7] of 29.6 nM, a TGI [7] of 4430 nM and a GI50 [8] of 133 nM. It also gave a TGI [8] of 424 nM, a GI50 [9] of 266 nM and a TGI [9] of 5010 nM. For the same compound, the GI50 [10] was 142 nM, the TGI [10] was 2290 nM and the GI50 [11] was 70.5 nM. The TGI [11] was 1080 nM, the GI50 [12] was 82.2 nM and the TGI [12] was 368 nM. The GI50 [13] was 83.8 nM, the TGI [13] was 3430 nM and the GI50 [14] was 192 nM. It also gave a TGI [14] of 1030 nM, a GI50 [15] of 160 nM and a TGI [15] of 2130 nM. For the same compound, the GI50 [16] was 22.7 nM, the TGI [16] was 211 nM and the GI50 [17] was 172 nM. For the same compound, the TGI [17] was 812 nM, the GI50 [18] was 78.6 nM and the TGI [18] was 399 nM. The GI50 [19] was 109 nM, the TGI [19] was 537 nM and the GI50 [20] was 55.2 nM. It also gave a TGI [20] of 5190 nM, a GI50 [21] of 49.5 nM and a TGI [21] of 1190 nM. The GI50 [22] was 168 nM, the TGI [22] was 727 nM and the GI50 [23] was 126 nM. For the same compound, the TGI [23] was 609 nM, the GI50 [24] was 219 nM and the TGI [24] was 4980 nM. It also gave a GI50 [25] of 131 nM, a TGI [25] of 708 nM and a GI50 [26] of 86.2 nM. The TGI [26] was 199 nM, the GI50 [27] was 84.2 nM and the TGI [27] was 376 nM. The GI50 [28] was 116 nM, the TGI [28] was 5610 nM and the GI50 [29] was 122 nM. The TGI [29] was 2510 nM, the GI50 [30] was 75.3 nM and the TGI [30] was 735 nM. The GI50 [31] was 195 nM, the TGI [31] was 2600 nM and the GI50 [32] was 116 nM. For the same compound, the TGI [32] was 638 nM, the GI50 [33] was 57.7 nM and the TGI [33] was 173 nM. For the same compound, the GI50 [34] was 533 nM, the TGI [34] was 1530 nM and the GI50 [35] was 173 nM. It also gave a TGI [35] of 864 nM, a GI50 [36] of 167 nM and a TGI [36] of 968 nM. It also gave a GI50 [37] of 88.8 nM, a TGI [37] of 5520 nM and a GI50 [38] of 127 nM. The TGI [38] was 5530 nM, the GI50 [39] was 175 nM and the TGI [39] was 3060 nM. It also gave a GI50 [40] of 217 nM, a TGI [40] of 3190 nM and a GI50 [41] of 157 nM. For the same compound, the TGI [41] was 1320 nM, the GI50 [42] was 263 nM and the TGI [42] was 4370 nM. The GI50 [43] was 555 nM, the TGI [43] was 2690 nM and the GI50 [44] was 20.3 nM. For the same compound, the TGI [44] was 952 nM, the GI50 [45] was 169 nM and the TGI [45] was 6370 nM. It also gave a GI50 [46] of 513 nM, a TGI [46] of 1560 nM and a GI50 [47] of 72 nM. It also gave a TGI [47] of 1040 nM, a GI50 [48] of 46.5 nM and a TGI [48] of 145 nM. The GI50 [49] was 71.8 nM, the TGI [49] was 588 nM and the GI50 [50] was 335 nM. It also gave a TGI [50] of 3660 nM, a GI50 [51] of 175 nM and a TGI [51] of 4260 nM. It also gave a GI50 [52] of 22.6 nM, a TGI [52] of 558 nM and a GI50 [53] of 835 nM. The TGI [53] was 8390 nM, the GI50 [54] was 173 nM and the TGI [54] was 3970 nM. The GI50 [55] was 109 nM, the TGI [55] was 6230 nM and the GI50 [56] was 123 nM. The TGI [56] was 543 nM, the GI50 [57] was 54.8 nM and the TGI [57] was 554 nM.

`O=S(=O)(c1cc(Cl)ccc1Cl)n1ccnc1` was tested, and the TGI [1] was greater than 100000 nM, the TGI [2] was greater than 100000 nM and the TGI [3] was 52800 nM. It also gave a TGI [4] greater than 100000 nM, a TGI [5] of 70900 nM and a TGI [6] greater than 100000 nM. It also gave a TGI [7] greater than 100000 nM, a TGI [8] of 39300 nM and a TGI [9] greater than 100000 nM. The TGI [10] was greater than 100000 nM, the TGI [11] was greater than 100000 nM and the TGI [12] was greater than 100000 nM. The TGI [13] was greater than 100000 nM, the TGI [14] was 52800 nM and the TGI [15] was greater than 100000 nM. The TGI [16] was greater than 100000 nM, the TGI [17] was greater than 100000 nM and the TGI [18] was greater than 100000 nM. The TGI [19] was greater than 100000 nM, the TGI [20] was greater than 100000 nM and the TGI [21] was greater than 100000 nM. For the same compound, the TGI [22] was 74100 nM, the TGI [23] was 95000 nM and the TGI [24] was greater than 100000 nM. The TGI [25] was 37000 nM, the TGI [58] was greater than 100000 nM and the TGI [26] was 53900 nM. For the same compound, the TGI [27] was 91600 nM, the TGI [28] was greater than 100000 nM and the TGI [29] was greater than 100000 nM. The TGI [30] was 34100 nM, the TGI [31] was greater than 100000 nM and the TGI [32] was greater than 100000 nM. The TGI [33] was greater than 100000 nM, the TGI [34] was greater than 100000 nM and the TGI [35] was 88000 nM. It also gave a TGI [36] of 42400 nM, a TGI [37] greater than 100000 nM and a TGI [38] greater than 100000 nM. The TGI [39] was 89500 nM, the TGI [40] was 45700 nM and the TGI [41] was greater than 100000 nM. It also gave a TGI [42] greater than 100000 nM, a TGI [43] greater than 100000 nM and a TGI [44] greater than 100000 nM. For the same compound, the TGI [45] was greater than 100000 nM, the TGI [46] was greater than 100000 nM and the TGI [47] was greater than 100000 nM. The TGI [48] was greater than 100000 nM, the TGI [49] was greater than 100000 nM and the TGI [50] was 51200 nM. The TGI [51] was greater than 100000 nM, the TGI [52] was greater than 100000 nM and the TGI [53] was greater than 100000 nM. The TGI [54] was 84400 nM, the TGI [55] was greater than 100000 nM and the TGI [56] was greater than 100000 nM. The TGI [57] was greater than 100000 nM.

— PubChem BioAssay (NCI)
